A short description of data set [1]: UV absorption spectrum of the compound as a 5% dispersion in liquid petrolatum (total transmission and reflection, spectrophotometer with integrating sphere). The settings on record: 60 μm film. It is filed as physicochemical. Here is the method:
The UV absorption spectrum of the compound was measured as a 5% dispersion in liquid petrolatum. The total transmission and reflection of the dispersion was determined on a 60 μm film with a spectrophotometer equipped with an integrating sphere.
The UV absorption spectrum of the compound was measured as a 5% dispersion in liquid petrolatum. The total transmission and reflection of the dispersion was determined on a 60 μm film with a spectrophotometer equipped with an integrating sphere (8 trials).

Here are results for two molecules from patent US6641802B2, “Amino acid compounds and photoprotecting compositions comprised thereof” (Societe L'Oreal S.A., priority 2000, dated 2003).

As a reminder, the melting point is the temperature of the solid-liquid transition.

`N[C@@H](CCCCNC(=O)C=Cc1ccccc1)C(=O)O` [Example 1, N^ε-cinnamoyl-L-lysine] returned a melting point above 260 °C. In addition, in data set [1], the absorption maximum was found to be 260 nm, the “shoulder (first shoulder)” value stood at 305 nm and the “optical density at 310 nm” value stood at 0.8.

Turning to `COc1ccc(C=CC(=O)NCCCCC(N)C(=O)O)cc1` (centres unmarked) [Example 2], the melting point is above 260 °C. Moreover, in data set [1], the absorption maximum came to 300 nm, the “shoulder (first shoulder)” value is reported as 320 nm and the “optical density at 310 nm” value was 0.4.
